Data: the supplement of paper PMC10331698
± gives the standard deviation of the averaged measurements.

Tests used:
Assay in all cases: level (log10 ratio to DMSO vehicle control); higher = higher biomarker level / cell amount than vehicle control
Conditions in all cases: in DMSO
[1] = compound: O=C(O)C(F)(F)C(F)(F)F [Perfluoropropanoic acid]
Procedure: (§1)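 BioMAP Diversity Plus panel of 12 human primary cell co-culture systems (3C, 4H, LPS, SAg, BT, BF4T, BE3C, CASM3C, HDF3CGF, KF3CT, MyoF, Mphg). Compounds were added 1 h before stimulation and left for 24 h (MyoF 48 h; BT 72 h for soluble read-outs or 6 d for IgG). Biomarkers were read by ELISA, cytotoxicity by SRB, PBMC viability and proliferation by Alamar Blue. Each well value was divided by the mean of 8 DMSO control wells on the same plate and log10 transformed; duplicate blinded samples were tested at 4 concentrations.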

[2] = compound: C=CC(=O)OCC(F)(F)C(F)(F)C(F)(F)C(F)(F)C(F)(F)C(F)(F)C(F)(F)F [1H,1H-Perfluorooctyl acrylate]
Procedure: as §1

[3] = compound: FC(F)(F)C(F)(F)C(F)(F)C(F)(F)C(F)(F)C(F)(F)C(F)(F)C(F)(F)CCS [2-(Perfluorooctyl)ethanthiol]
Procedure: as §1

[4] = compound: COC(=O)CCC(F)(F)C(F)(F)C(F)(F)C(F)(F)F [Methyl 2H,2H,3H,3H-perfluoroheptanoate]
Procedure: as §1

[5] = compound: OCC(F)(F)OC(F)(F)C(F)(F)OC(F)(F)CO [1H,1H,8H,8H-Perfluoro-3,6-dioxaoctane-1,8-diol]
Procedure: as §1

[6] = compound: C=C(C)C(=O)OCCC(F)(F)C(F)(F)C(F)(F)C(F)(F)C(F)(C(F)(F)F)C(F)(F)F [(Perfluoro-5-methylhexyl)ethyl 2-methylprop-2-enoate]
Procedure: as §1

[7] = compound: C=CC(F)(F)C(F)(F)C(F)(F)C(F)(F)C(F)(F)C(F)(F)C(F)(F)C(F)(F)C=C [1,8-Divinylperfluorooctane]
Procedure: as §1

| Test System | level (log10) ([1]; 6700 nM) | level (log10) ([1]; 20000 nM) | level (log10) ([1]; 60000 nM) | level (log10) ([2]; 6700 nM) | level (log10) ([2]; 20000 nM) | level (log10) ([2]; 60000 nM) | level (log10) ([3]; 6700 nM) | level (log10) ([3]; 20000 nM) | level (log10) ([4]; 6700 nM) | level (log10) ([4]; 20000 nM) | level (log10) ([4]; 60000 nM) | level (log10) ([5]; 6700 nM) | level (log10) ([5]; 20000 nM) | level (log10) ([5]; 60000 nM) | level (log10) ([6]; 6700 nM) | level (log10) ([6]; 20000 nM) | level (log10) ([7]; 6700 nM) | level (log10) ([7]; 20000 nM) |
| --- | --- | --- | --- | --- | --- | --- | --- | --- | --- | --- | --- | --- | --- | --- | --- | --- | --- | --- |
| 4H:SRB | 0 ± 0.0028 | -0.002 ± 0.0071 | 0.0095 ± 0.0092 | 0.003 ± 0.016 | 0.0015 ± 0.013 | 0.0045 ± 0.0064 | 0.0085 ± 0.011 | -0.003 ± 0.0057 | 0.0075 ± 0.022 | 0.006 ± 0.0057 | -0.017 ± 0.0099 | -0.014 ± 0.0099 | -0.0195 ± 0.015 | -0.047 ± 0.0071 | 0.002 ± 0.013 | -0.0025 ± 0.019 | 0.002 ± 0.0057 | 0.0125 ± 0.00071 |
| BF4T:CD54/ICAM-1 | 0.006 ± 0.021 | -0.0045 ± 0.047 | 0.018 ± 0.027 | -0.0105 ± 0.005 | -0.0165 ± 0.0035 | -0.0295 ± 0.0092 | 0.0025 ± 0.005 | -0.003 ± 0.0014 | -0.025 ± 0.034 | -0.0195 ± 0.019 | -0.026 ± 0.027 | -0.005 ± 0.0057 | 0.008 ± 0.0028 | -0.0005 ± 0.0035 | -0.0065 ± 0.015 | -0.017 ± 0.0099 | -0.0115 ± 0.021 | -0.0095 ± 0.022 |
| BF4T:SRB | -0.002 ± 0.0028 | -0.0025 ± 0.0064 | -0.0055 ± 0.0064 | -0.003 | -0.0055 ± 0.011 | 0.002 ± 0.025 | -0.01 ± 0.013 | -0.016 ± 0.0014 | -0.002 ± 0.0028 | 0.003 ± 0.0028 | -0.003 ± 0.0014 | -0.0045 ± 0.013 | -0.0065 ± 0.005 | -0.0055 ± 0.0021 | -0.016 ± 0.011 | -0.007 ± 0.025 | -0.0045 ± 0.0021 | -0.0025 ± 0.00071 |
| LPS:CD40 | 0.0105 ± 0.043 | -0.0235 ± 0.0035 | 0.011 ± 0.023 | 0.0745 ± 0.063 | 0.039 ± 0.071 | -0.0125 ± 0.097 | -0.034 ± 0.055 | -0.0305 ± 0.11 | -0.017 ± 0.041 | 0.003 ± 0.051 | -0.015 ± 0.078 | 0.006 ± 0.027 | 0.017 ± 0.0028 | 0.0005 ± 0.03 | 0.07 ± 0.038 | -0.0015 ± 0.016 | 0.0305 ± 0.018 | 0.0225 ± 0.0064 |
